Measurements as given in ChEMBL document CHEMBL5154944, “Discovery of Aryloxyphenyl-Heptapeptide Hybrids as Potent and Selective Matrix Metalloproteinase-2 Inhibitors for the Treatment of Idiopathic Pulmonary Fibrosis” (J Med Chem, 2022).
Non-standard residues stand in square brackets, D forms with d. Residues, ends and D or L forms follow the SMILES beside them. *: point of attachment. Benzoyl(4-OPh(4-CONH2)) = NC(=O)c1ccc(Oc2ccc(C(=O)*)cc2)cc1; Benzenesulfonyl(4-OPh) = O=S(=O)(c1ccc(Oc2ccccc2)cc1)*; Benzenesulfonyl(4-Ph) = O=S(=O)(c1ccc(-c2ccccc2)cc1)*; X1 = O=C(CCCCS(=O)(=O)c1ccc(Oc2ccccc2)cc1)*; Benzoyl(4-OPh) = O=C(c1ccc(Oc2ccccc2)cc1)*; X2 = O=C(c1ccc(Oc2ccc(F)cc2)cc1)*; NMeI = CC[C@H](C)[C@H](NC)C(=O)O; NMeE = CN[C@@H](CCC(=O)O)C(=O)O; NMeL = CN[C@@H](CC(C)C)C(=O)O; NMeM = CN[C@@H](CCSC)C(=O)O; NMeV = CN[C@H](C(=O)O)C(C)C; β3hP = O=C(O)C[C@@H]1CCCN1; Orn = NCCC[C@H](N)C(=O)O; Dab = NCC[C@H](N)C(=O)O; Dap = NC[C@H](N)C(=O)O; Ahx = NCCCCCC(=O)O; Ava = NCCCCC(=O)O; GABA = NCCCC(=O)O; βAla = NCCC(=O)O

Key:
Homo sapiens = organism: Homo sapiens; experiment: Selectivity ratio of IC50 for recombinant human MMP12 to IC50 for recombinant human MMP2
[1] = target: 72 kDa type IV collagenase (Homo sapiens, UniProt P08253)
72 kDa type IV collagenase, sequence (P08253 whole entry): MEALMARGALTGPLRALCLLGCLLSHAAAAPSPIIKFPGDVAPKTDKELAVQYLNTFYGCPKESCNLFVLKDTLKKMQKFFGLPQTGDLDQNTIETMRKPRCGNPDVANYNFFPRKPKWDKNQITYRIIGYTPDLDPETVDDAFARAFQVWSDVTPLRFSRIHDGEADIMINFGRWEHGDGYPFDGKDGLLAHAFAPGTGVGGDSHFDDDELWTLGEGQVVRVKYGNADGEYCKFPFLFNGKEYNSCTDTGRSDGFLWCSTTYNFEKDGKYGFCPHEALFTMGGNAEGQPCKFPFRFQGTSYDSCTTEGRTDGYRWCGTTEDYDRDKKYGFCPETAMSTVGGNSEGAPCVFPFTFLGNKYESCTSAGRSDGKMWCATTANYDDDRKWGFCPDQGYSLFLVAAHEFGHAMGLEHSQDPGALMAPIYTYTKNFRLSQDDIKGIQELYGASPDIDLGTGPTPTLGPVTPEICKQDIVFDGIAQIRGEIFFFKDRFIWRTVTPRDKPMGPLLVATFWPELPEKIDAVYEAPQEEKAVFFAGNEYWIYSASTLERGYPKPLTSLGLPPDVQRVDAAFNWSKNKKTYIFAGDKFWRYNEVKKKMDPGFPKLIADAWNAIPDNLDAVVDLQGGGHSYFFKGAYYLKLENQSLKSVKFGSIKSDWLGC

Collagenase 3 = Collagenase 3 (Homo sapiens, UniProt P45452)
[2] = target: Macrophage metalloelastase (Homo sapiens, UniProt P39900)
Macrophage metalloelastase, sequence (P39900 whole entry): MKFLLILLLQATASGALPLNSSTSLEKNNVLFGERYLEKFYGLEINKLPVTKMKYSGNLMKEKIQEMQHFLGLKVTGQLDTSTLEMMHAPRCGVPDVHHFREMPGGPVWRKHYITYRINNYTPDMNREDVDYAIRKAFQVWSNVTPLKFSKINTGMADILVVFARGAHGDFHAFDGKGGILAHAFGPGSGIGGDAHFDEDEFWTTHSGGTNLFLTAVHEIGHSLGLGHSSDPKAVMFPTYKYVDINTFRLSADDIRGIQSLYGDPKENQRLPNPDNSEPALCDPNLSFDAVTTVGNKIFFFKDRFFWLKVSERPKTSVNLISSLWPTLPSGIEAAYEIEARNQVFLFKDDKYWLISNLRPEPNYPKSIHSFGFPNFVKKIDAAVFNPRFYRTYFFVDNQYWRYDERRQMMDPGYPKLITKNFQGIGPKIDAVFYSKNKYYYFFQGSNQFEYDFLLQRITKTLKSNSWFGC

Matrilysin = target: T1, Matrilysin (Homo sapiens, UniProt P09237)
T1 sequence (P09237 whole entry): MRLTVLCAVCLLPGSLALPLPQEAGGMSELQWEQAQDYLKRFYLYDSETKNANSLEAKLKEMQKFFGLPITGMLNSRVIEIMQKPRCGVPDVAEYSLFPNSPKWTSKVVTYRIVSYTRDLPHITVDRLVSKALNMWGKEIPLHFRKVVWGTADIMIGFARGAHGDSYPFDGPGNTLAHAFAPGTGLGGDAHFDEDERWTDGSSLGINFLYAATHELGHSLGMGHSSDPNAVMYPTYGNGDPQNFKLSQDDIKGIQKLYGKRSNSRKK

[3] = target: Matrix metalloproteinase-14 (Homo sapiens, UniProt P50281); experiment: Inhibition of recombinant human MMP14 using MOCAc-Lys-Pro-Leu-Gly-Leu-A2pr(Dnp)-Ala-Arg-NH2 as substrate preincubated for 15 mins followed by substrate addition by fluroscence based assay

SMILES	IC50 [2]	IC50 (Matrilysin)	IC50 [3]	Ratio IC50 (Homo sapiens)	IC50 [1]	IC50 (Collagenase 3)
CSCC[C@H](NC(=O)[C@H](CC(C)C)NC(=O)[C@H](C)NC(=O)[C@H](CC(=O)O)NC(=O)[C@H](CC(N)=O)NC(=O)CCCCS(=O)(=O)c1ccc(Oc2ccccc2)cc1)C(=O)N1CCC[C@H]1C(N)=O (X1-NDALMP-NH2)	–	–	–	69	0.089 nM	57 nM
CSCC[C@H](NC(=O)[C@H](CC(C)C)NC(=O)[C@H](C)NC(=O)[C@H](CC(=O)O)NC(=O)[C@H](CC(N)=O)NC(=O)CCCNS(=O)(=O)c1ccc(Oc2ccccc2)cc1)C(=O)N1CCC[C@H]1C(N)=O ({Benzenesulfonyl(4-OPh)-GABA}-NDALMP-NH2)	–	–	–	145	0.083 nM	55 nM
CC[C@H](C)[C@@H](C(=O)N1CCC[C@H]1C(N)=O)N(C)C(=O)[C@H](CC(C)C)NC(=O)[C@H](C)NC(=O)[C@H](CC(=O)O)NC(=O)[C@H](CC(N)=O)NC(=O)CCCNS(=O)(=O)c1ccc(Oc2ccccc2)cc1 ({Benzenesulfonyl(4-OPh)-GABA}-NDAL[NMeI]P-NH2)	–	–	–	186	0.097 nM	16 nM
CC(C)C[C@H](NC(=O)[C@H](C)NC(=O)[C@H](CC(=O)O)NC(=O)[C@H](CC(N)=O)NC(=O)CCCNS(=O)(=O)c1ccc(Oc2ccccc2)cc1)C(=O)N(C)[C@@H](CC(C)C)C(=O)N1CCC[C@H]1C(N)=O ({Benzenesulfonyl(4-OPh)-GABA}-NDAL[NMeL]P-NH2)	–	–	–	62	0.066 nM	9.2 nM
CC(C)C[C@H](NC(=O)[C@H](C)NC(=O)[C@H](CC(=O)O)NC(=O)[C@H](CC(N)=O)NC(=O)CCCNS(=O)(=O)c1ccc(Oc2ccccc2)cc1)C(=O)N(C)[C@@H](CC(C)C)C(=O)N1CCC[C@H]1CC(N)=O ({Benzenesulfonyl(4-OPh)-GABA}-NDAL[NMeL][β3hP]-NH2)	–	–	–	24	0.055 nM	15 nM
CSCC[C@@H](C(=O)N1CCC[C@H]1C(N)=O)N(C)C(=O)[C@H](CC(C)C)NC(=O)[C@H](C)NC(=O)[C@H](CC(=O)O)NC(=O)[C@H](CC(N)=O)NC(=O)CCCNS(=O)(=O)c1ccc(Oc2ccccc2)cc1 ({Benzenesulfonyl(4-OPh)-GABA}-NDAL[NMeM]P-NH2)	–	–	–	57	0.128 nM	7 nM
CSCC[C@@H](C(=O)N1CCC[C@H]1CC(N)=O)N(C)C(=O)[C@H](CC(C)C)NC(=O)[C@H](C)NC(=O)[C@H](CC(=O)O)NC(=O)[C@H](CC(N)=O)NC(=O)CCCNS(=O)(=O)c1ccc(Oc2ccccc2)cc1 ({Benzenesulfonyl(4-OPh)-GABA}-NDAL[NMeM][β3hP]-NH2)	–	–	–	43	0.044 nM	5.8 nM
CC(C)C[C@H](NC(=O)[C@H](C)NC(=O)[C@H](CC(=O)O)NC(=O)[C@H](CC(N)=O)NC(=O)CCCNS(=O)(=O)c1ccc(Oc2ccccc2)cc1)C(=O)N(C)[C@H](C(=O)N1CCC[C@H]1C(N)=O)C(C)C ({Benzenesulfonyl(4-OPh)-GABA}-NDAL[NMeV]P-NH2)	–	–	–	282	0.078 nM	21 nM
CC(C)C[C@H](NC(=O)[C@H](C)NC(=O)[C@H](CC(=O)O)NC(=O)[C@H](CC(N)=O)NC(=O)CCCNS(=O)(=O)c1ccc(Oc2ccccc2)cc1)C(=O)N(C)[C@H](C(=O)N1CCC[C@H]1CC(N)=O)C(C)C ({Benzenesulfonyl(4-OPh)-GABA}-NDAL[NMeV][β3hP]-NH2)	–	–	–	122	0.046 nM	25 nM
CC[C@H](C)[C@@H](C(=O)N1CCC[C@H]1CC(N)=O)N(C)C(=O)[C@H](CC(C)C)NC(=O)[C@H](CCN)NC(=O)[C@H](CC(=O)O)NC(=O)[C@H](CC(N)=O)NC(=O)CCCNS(=O)(=O)c1ccc(Oc2ccccc2)cc1 ({Benzenesulfonyl(4-OPh)-GABA}-ND[Dab]L[NMeI][β3hP]-NH2)	–	–	–	6010	0.09 nM	443 nM
CC[C@H](C)[C@@H](C(=O)N1CCC[C@H]1CC(N)=O)N(C)C(=O)[C@H](CC(C)C)NC(=O)[C@H](CN)NC(=O)[C@H](CC(=O)O)NC(=O)[C@H](CC(N)=O)NC(=O)CCCNS(=O)(=O)c1ccc(Oc2ccccc2)cc1 ({Benzenesulfonyl(4-OPh)-GABA}-ND[Dap]L[NMeI][β3hP]-NH2)	–	–	–	977	0.13 nM	274 nM
CC[C@H](C)[C@@H](C(=O)N1CCC[C@H]1CC(N)=O)N(C)C(=O)[C@H](CC(C)C)NC(=O)[C@H](CCCN)NC(=O)[C@H](CC(=O)O)NC(=O)[C@H](CC(N)=O)NC(=O)CCCNS(=O)(=O)c1ccc(Oc2ccccc2)cc1 ({Benzenesulfonyl(4-OPh)-GABA}-ND[Orn]L[NMeI][β3hP]-NH2)	–	–	–	189	0.61 nM	134 nM
CSCC[C@H](NC(=O)[C@H](CC(C)C)NC(=O)[C@H](C)NC(=O)[C@H](CC(=O)O)NC(=O)[C@H](CC(N)=O)NC(=O)CCNS(=O)(=O)c1ccc(Oc2ccccc2)cc1)C(=O)N1CCC[C@H]1C(N)=O ({Benzenesulfonyl(4-OPh)-βAla}-NDALMP-NH2)	–	–	–	51	0.49 nM	114 nM
CSCC[C@H](NC(=O)[C@H](CC(C)C)NC(=O)[C@H](C)NC(=O)[C@H](CC(=O)O)NC(=O)[C@H](CC(N)=O)NC(=O)CCCCNS(=O)(=O)c1ccc(-c2ccccc2)cc1)C(=O)N1CCC[C@H]1C(N)=O ({Benzenesulfonyl(4-Ph)-Ava}-NDALMP-NH2)	–	–	–	12	2.9 nM	1710 nM
CSCC[C@H](NC(=O)[C@H](CC(C)C)NC(=O)[C@H](C)NC(=O)[C@H](CC(=O)O)NC(=O)[C@H](CC(N)=O)NC(=O)CCCNS(=O)(=O)c1ccc(-c2ccccc2)cc1)C(=O)N1CCC[C@H]1C(N)=O ({Benzenesulfonyl(4-Ph)-GABA}-NDALMP-NH2)	–	–	–	5	9.2 nM	1120 nM
CSCC[C@H](NC(=O)[C@H](CC(C)C)NC(=O)[C@H](C)NC(=O)[C@H](CC(=O)O)NC(=O)[C@H](CC(N)=O)NC(=O)CCNS(=O)(=O)c1ccc(-c2ccccc2)cc1)C(=O)N1CCC[C@H]1C(N)=O ({Benzenesulfonyl(4-Ph)-βAla}-NDALMP-NH2)	–	–	–	18	6.3 nM	1730 nM
CC(C)C[C@H](NC(=O)[C@H](CCN)NC(=O)[C@H](CC(=O)O)NC(=O)[C@H](CC(N)=O)NC(=O)CCCCCNC(=O)c1ccc(Oc2ccc(C(N)=O)cc2)cc1)C(=O)N(C)[C@@H](CCC(=O)O)C(=O)N1CCC[C@H]1CC(N)=O ({Benzoyl(4-OPh(4-CONH2))-Ahx}-ND[Dab]L[NMeE][β3hP]-NH2)	–	–	–	15600	0.13 nM	192 nM
CC(C)C[C@H](NC(=O)[C@H](CCN)NC(=O)[C@H](CC(=O)O)NC(=O)[C@H](CC(N)=O)NC(=O)CCCNC(=O)c1ccc(Oc2ccc(C(N)=O)cc2)cc1)C(=O)N(C)[C@@H](CCC(=O)O)C(=O)N1CCC[C@H]1CC(N)=O ({Benzoyl(4-OPh(4-CONH2))-GABA}-ND[Dab]L[NMeE][β3hP]-NH2)	–	–	–	23100	0.17 nM	540 nM
CC(C)C[C@H](NC(=O)[C@H](CCN)NC(=O)[C@H](CC(=O)O)NC(=O)[C@H](CC(N)=O)NC(=O)CCNC(=O)c1ccc(Oc2ccc(C(N)=O)cc2)cc1)C(=O)N(C)[C@@H](CCC(=O)O)C(=O)N1CCC[C@H]1CC(N)=O ({Benzoyl(4-OPh(4-CONH2))-βAla}-ND[Dab]L[NMeE][β3hP]-NH2)	–	–	–	8390	0.53 nM	146 nM
CC(C)C[C@H](NC(=O)[C@H](CCN)NC(=O)[C@H](CC(=O)O)NC(=O)[C@H](CC(N)=O)NC(=O)CCCNC(=O)c1ccc(Oc2ccccc2)cc1)C(=O)N(C)[C@@H](CCC(=O)O)C(=O)N1CCC[C@H]1CC(N)=O ({Benzoyl(4-OPh)-GABA}-ND[Dab]L[NMeE][β3hP]-NH2)	–	–	–	27200	–	2000 nM
CC(C)C[C@H](NC(=O)[C@H](CCN)NC(=O)[C@H](CC(=O)O)NC(=O)[C@H](CC(N)=O)NC(=O)CCCNC(=O)c1ccc(Oc2ccc(F)cc2)cc1)C(=O)N(C)[C@@H](CCC(=O)O)C(=O)N1CCC[C@H]1CC(N)=O ({X2-GABA}-ND[Dab]L[NMeE][β3hP]-NH2)	–	–	–	40700	0.11 nM	1290 nM
CNC(=O)[C@H](Cc1c[nH]c2ccccc12)NC(=O)[C@@H](CC(=O)NO)CC(C)C [ILOMASTAT]	0.46 nM	5.1 nM	1.1 nM	–	–	0.28 nM

More lines, main results first:

IC50 [2]	IC50 (Matrilysin)	IC50 [3]	SMILES	Ratio IC50 (Homo sapiens)	IC50 [1]	IC50 (Collagenase 3)
916 nM	–	–	CSCC[C@H](NC(=O)[C@H](CC(C)C)NC(=O)[C@H](C)NC(=O)[C@H](CC(=O)O)NC(=O)[C@H](CC(N)=O)NC(=O)CNS(=O)(=O)c1ccc(Oc2ccccc2)cc1)C(=O)N1CCC[C@H]1C(N)=O ({Benzenesulfonyl(4-OPh)}-GNDALMP-NH2)	13	69 nM	6470 nM
4170 nM	–	–	CSCC[C@H](NC(=O)[C@H](CC(C)C)NC(=O)[C@H](C)NC(=O)[C@H](CC(=O)O)NC(=O)[C@H](CC(N)=O)NC(=O)CNS(=O)(=O)c1ccc(-c2ccccc2)cc1)C(=O)N1CCC[C@H]1C(N)=O ({Benzenesulfonyl(4-Ph)}-GNDALMP-NH2)	–	> 100 nM	> 10000 nM
